Assay results taken from paper PMC11955804, “Histidine-rich enantiomeric peptide coacervates enhance antigen sequestration and presentation to T cells” (Chemical Science, 2025).

Columns and labels:
[1] = Critical concentration (Ccrit) of coacervate formation; type: physicochemical; conditions: 1× PBS, pH 7.4; enantiomeric variants identical
From the text: Peptide synthesis and purification
The L- and D-enantiomers of (GHGLY)4, (GHGVY)4 and (GHGPY)4 peptides were purchased from GenScript and used without further modification. (GHGAY)4, (GHGFY)4, (GHGIY)4 and (GHGNY)4 were synthesized using standard Fmoc-SPPS chemistry on Rink Amide with Oxyma (Ethyl cyano(hydroxyimino) acetate) and N, N′-diisopropylcarbodiimide (DIC) as coupling agents on a Liberty Blue microwave-assisted synthesizer. Peptides were cleaved using a cocktail of trifluoroacetic acid (TFA), tri-isopropyl silane (TIS), and H2O (95:2.5:2.5) and extracted and washed in cold diethyl ether. The resulting pellet was dissolved in acetonitrile/water mixture (50:50) and frozen prior to lyophilization. Peptides were purified (~90%) using High Performance Liquid Chromatography (HPLC) on a Dionex Ultimate 3000 HPLC equipped with a diode-array detector on an Agilent Poroshell RP-C18 column (4.6 mm×150 mm), operating at a flow rate of 1 mL/min. Peaks corresponding to 220 nm were collected for MALDI -TOF mass analysis (Shimadzu MALDI-8030) using α-cyno-4-hydroxycinnamic acid matrix (Bruker Daltonics, MA).
Peptide solutions (0.25–1.5 mM) were prepared in 1×PBS at pH 7.4. Aliquots (140 µL) were pipetted into a 96-well plate and absorbance at 600 nm was measured over 24 h using a Synergy HT plate reader (Biotek, USA) at RT or 37°C with or without agitation. The pH dependence of LLPS formation was assessed in 0.1 M potassium phosphate buffer (with 150 mM NaCl) at different pH values (5.8, 6.6, 7.4, 8.0) and 1 mM peptide concentration. Similarly, 0.1 M potassium phosphate buffer (pH 7.4) with varying salt concent rations (0, 150, 250, 500, 1000 mM […]
Figure S10. Determination of Ccrit for (a) (GHGLY)4, (b) (GHGVY)4, (c) (GHGPY)4 and (d-f) their corresponding enantiomers (1 mM, 1× PBS, pH 7.4).
Table S1. Measured Ccrit values for (GHGXY)4 peptides used in this study.
(1 picture or pasted object on this page, not shown here)

[2] = Encapsulation efficiency measurement; type: physicochemical; conditions: 1 mM peptide, 1 µM eGFP in PBS; centrifuged 15,000 × g 10 min; fluorescence of supernatant (λex 395 nm, λem 510 nm)
Experimental: Encapsulation efficiency measurements […]
powders to a final peptide concentration of 1 mM. Cargo concentrations in the stock solutions […]
nm and λem: 519 nm). For small molecule dyes, similar methods were used. The encapsulation efficiency was determined as reported previously 12.
Cellular uptake and antigen presentation assays […]
to addition of OVA-loaded coacervates. Final OVA concentration was 1 µg/mL for time- […]
37°C and complete RPMI media served as controls. Soluble OVA and PBS treated cells were used as controls for antigen delivery.

[3] = tested on: CD55 expression in A549 cells; experiment: CRISPR/Cas9 RNP delivery, CD55 knockdown by flow cytometry; type: cell-based; conditions: 3 days, enantiomeric coacervates
Experimental: complexed with lipofectamine 2000 (3.2 µL) served as controls. GFP expression was assessed qualitatively after 96 h using a Lionheart FX automated microscope (BioTek Instruments, Inc.).
We employed TrueCut Cas9 protein for the knockout of CD55 gene using CRISPR technology, aided with chiral (GHGXY)4 peptide coacervates. The transfection of the Cas9 RNPs (protein + gRNA) was done according to manufacturer’s protocol (Invitrogen). Briefly, A549 cells were cultured in complete DMEM media (supplemented with 10% FBS and 5% Pen Strep) in T-75 flask till full confluency. Cells were then plated at a concentration of 2×10^4 cells/mL in 24 well […]
plates in DMEM media for 24 h. […]
confluent. For positive control, we mixed the TrueCutTM Cas9 protein/sgRNA in Opti-MEM media (17.8 μL) at a concentration of 12.50 μg (75 pmol; Stock 0.5 mg/mL) and 2.4 μg (75 pmol; Stock 1 nmol) for protein and sgRNA respectively, containing 50 μL LipofectamineTM Cas 9 PlusTM reagent (Total Volume: 100 μL) in a RNAse -free microcentrifuge tube. […]
(DAF) Antibody (anti-human; miltenyibiotec Cat#130-126-382). […] Data were analyzed with FlowJo version 10. […] was quantified as the percentage CD55+ cells, considering untreated cells as the negative control and Lipofectamine treated ones as the positive control. […]

Q: For (GHGLY)4 [GL 20], which “critical concentration (Ccrit) of coacervate formation” value [1] is on record?
A: The value was 0.5 mM.

Q: What about the eGFP loading efficiency [2] of the same substance?
A: Its eGFP loading efficiency is roughly 90%.

Q: And the “delivery of Cas9 RNP complex / decrease in CD55 expression on the cell surface” value [3]?
A: Its value is “not highly effective”.

Q: Which results are given for (GHGVY)4 [GV 20]?
A: critical concentration (Ccrit) of coacervate formation [1]: 0.75 mM; eGFP loading efficiency [2]: ~75%; delivery of Cas9 RNP complex / decrease in CD55 expression on the cell surface [3]: successfully delivered the RNP complex
